For orientation: Kd means the concentration at which binding is half-saturated.

Consider four molecules from US9447156B2, “Methods and compositions for inhibiting neddylation of proteins” (St. Jude Children's Research Hospital, priority 2011, dated 2016).

For one test, the target named is T1, hDcn1^P (Homo sapiens, UniProt Q96GG9).
T1 construct: hDcn1^P corresponds to residues 62 to the C-terminal residue 259 of hDcn1; GST (cleaved yes); made in house; host or cells: E. coli BL21(DE3)Gold
Description: ITC binding of Ubc12/Ube2f peptides to hDcn1^P. The following applies: Table 29, peptides with amidated carboxy-terminus, read-out: Binding Kd for hDcn1^P. As for the experimental part:
(§1) Protein samples were buffer matched by desalting over a NAP-5 column (GE Healthcare) into 50 mM Hepes, 125 mM NaCl, 1 mM BME, pH 7.0 (ITC buffer). Peptides were dissolved by weight to a final concentration of 10 mM in ITC buffer and diluted further in ITC buffer as required for the experiments. Measurements were performed using a MicroCal ITC200. hDcn1^P or yDcn1^P were placed into the sample cell at a final concentration of 400 μM at 18° C. The peptide ligands (4 mM) were constantly injected (1.5 μl). The interval time between each injection was 3 minutes and the duration of each injection was 3 seconds. For titrations involving hE1 and yE1, proteins were placed into the sample cell at a final concentration of 25 μM at 22° C. Peptide ligands (250 μM) were constantly injected (2.5 μl). The interval time between each injection was three minutes and the duration of each injection was 5 seconds. For hCul1^ctd-Rbx1:hDcn1^P binding, proteins were buffer matched by desalting over a NAP-5 column in 25 mM Tris, 0.1 M NaCl, 1 mM BME, pH 7.6. hCul1^ctd-Rbx1 was placed into the sample cell at a final concentration of 55 μM at 22° C. hDcn1^P (550 μM) was constantly injected (2.5 μl). The interval time between each injection was 3 minutes and the duration of each injection was 5 seconds. Obtained spectra were evaluated using Origin (V 7.0) to determine heats of binding and Kd values.
(§2) The affinity of various peptides for hDcn1^P, hDcn2^P, hDcn3^P, hDcn4^P, and hDcn5^P was tested using isothermal titration calorimetry as described in Example 1 and is provided in Table 29.

The next test addresses T2, hDcn2^P (Homo sapiens, UniProt Q6PH85).
T2 construct: human Dcn1 family members 1-5 (also called DCUND1-DCUND5)
Kind of test: ITC binding of peptides to hDcn2^P. The following applies: Table 29, peptides with amidated carboxy-terminus. On the procedure:
as §1, §2

Another test addresses T3, hDcn4^P (Homo sapiens, UniProt Q92564).
T3 sequence (Q92564 102-292): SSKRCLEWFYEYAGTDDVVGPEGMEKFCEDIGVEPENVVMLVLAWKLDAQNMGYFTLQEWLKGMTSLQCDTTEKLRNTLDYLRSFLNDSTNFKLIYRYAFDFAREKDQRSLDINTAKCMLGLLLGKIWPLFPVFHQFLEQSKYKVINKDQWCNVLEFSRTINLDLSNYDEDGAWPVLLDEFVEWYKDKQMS
Description: ITC binding of peptides to hDcn4^P. The settings on record: Table 29, peptides with amidated carboxy-terminus. As for the experimental part: as §1, with “values. […]” for “values.”

A further test addresses T4, hDcn5^P (Homo sapiens, UniProt Q9BTE7).
T4 construct: human Dcn1 family members 1-5 (also called DCUND1-DCUND5)
T4 sequence (Q9BTE7 47-237): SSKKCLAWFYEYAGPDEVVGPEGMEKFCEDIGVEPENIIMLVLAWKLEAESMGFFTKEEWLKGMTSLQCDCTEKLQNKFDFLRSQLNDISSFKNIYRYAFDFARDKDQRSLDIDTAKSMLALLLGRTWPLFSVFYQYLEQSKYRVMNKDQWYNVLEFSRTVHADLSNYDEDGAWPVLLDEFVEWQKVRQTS
Description: ITC binding of peptides to hDcn5^P. The settings on record: Table 29, peptides with amidated carboxy-terminus. On the procedure:
as §1, with “values. […]” for “values.”

Test [1] has as its target hCul1^ctd-hRbx1. Kind of test: ITC hDcn1^P binding to hCul1^ctd-hRbx1. The following applies: human versus yeast Kd. As for the experimental part: as §1
For test [2], the system named is hCul1^ctd-hRbx1. Kind of test: Pulse-chase assay of [32P]~hNedd8 transfer from hUbc12 to hCul1-hRbx1 with or without hDcn1^P. The class given is biochemical, human. The settings on record: FIG. 3. On the procedure:
Dcn1^P-mediated co-E3 activity was monitored using pulse-chase assays to exclusively monitor effects of acetylation on Nedd8 transfer to Cul1 without sensing earlier steps in the reaction. For the “pulse”, 10 μM of the indicated versions of yUbc12 were charged with [^32P]-yNedd8 (also referred to as [^32P]-Rub1) as described previously (Scott et al. (2010) Mol Cell 39(5):784-796), resulting in formation of a thiolester-linked yUbc12-[^32P]-yNedd8 intermediate. 10 μM of the indicated versions of hUbc12 were charged similarly with [^32P]-hNedd8, for 15 minutes at room temperature using 0.1 μM hE1, 15 μM [^32P]-hNedd8, in 50 mM Hepes, 100 mM NaCl, 1.25 mM ATP, 2.5 mM MgCl2, pH 7.5. Formation of a yUbc12-[^32P]-yNedd8 or hUbc12-[^32P]-hNedd8 intermediate was quenched with 50 mM EDTA on ice for 5 minutes. Other than in FIG. 3, where additional details are provided, chase reactions with hUbc12 and yUbc12 variants involved dilution of the Ubc12-[^32P]-Nedd8 thioester conjugate to 40 nM in 50 mM BisTris, 100 mM NaCl, 50 mM EDTA, 0.5 mg/ml BSA, pH 6.7. Chase reactions were initiated at 0° C. by the addition of hCul1^ctd-hRbx1, yCul1^C+-yRbx1, hDcn1^P-hCul1^ctd-hRbx1, or yDcn1^P-yCul1^C+-yRbx1 at a final concentration of 125 nM. Aliquots were removed at the indicated times and quenched with 2×SDS-PAGE sample buffer. […]

The next test deals with yCul1^C+-yRbx1. The following applies: yeast counterparts; read-out: Kd yCul1^C+-yRbx1:yDcn1^P; cited from earlier work.
Sequence of yCul1^C+-yRbx1 (Q12018 427-815 limits assumed): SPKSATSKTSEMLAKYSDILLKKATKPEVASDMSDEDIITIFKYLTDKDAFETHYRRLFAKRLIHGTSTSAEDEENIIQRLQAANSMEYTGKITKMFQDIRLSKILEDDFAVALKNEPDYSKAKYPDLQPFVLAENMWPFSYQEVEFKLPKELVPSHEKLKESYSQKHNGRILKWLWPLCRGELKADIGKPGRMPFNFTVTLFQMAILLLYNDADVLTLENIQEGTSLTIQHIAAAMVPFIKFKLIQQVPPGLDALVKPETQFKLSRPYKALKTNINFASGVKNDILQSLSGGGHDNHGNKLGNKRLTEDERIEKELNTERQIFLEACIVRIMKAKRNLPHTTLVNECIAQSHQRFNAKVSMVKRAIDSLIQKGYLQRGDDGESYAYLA
Sequence of yCul1^C+-yRbx1 (Q08273 32-121 limits assumed, further chain): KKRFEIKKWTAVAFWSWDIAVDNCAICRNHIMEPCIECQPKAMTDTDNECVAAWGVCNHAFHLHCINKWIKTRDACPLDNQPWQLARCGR

T1 sequence (Q96GG9 62-259): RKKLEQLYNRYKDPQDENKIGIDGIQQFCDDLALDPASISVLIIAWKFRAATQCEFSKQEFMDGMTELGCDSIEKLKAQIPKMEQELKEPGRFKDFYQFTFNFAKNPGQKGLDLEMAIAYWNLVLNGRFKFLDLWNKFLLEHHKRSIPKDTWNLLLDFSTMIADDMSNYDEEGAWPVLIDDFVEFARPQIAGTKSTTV
T2 sequence (Q6PH85 62-259): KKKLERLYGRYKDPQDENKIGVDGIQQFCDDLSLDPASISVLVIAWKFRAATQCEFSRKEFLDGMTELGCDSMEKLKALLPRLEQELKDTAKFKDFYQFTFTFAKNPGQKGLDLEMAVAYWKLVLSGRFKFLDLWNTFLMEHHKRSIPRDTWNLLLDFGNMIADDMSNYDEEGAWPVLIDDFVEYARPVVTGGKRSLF

“Ac-MLTLASKLKRDDGLKGSRTAATASD-NH2 [hUbe2f^Ac1−25]”: the Kd on hDcn1^P was greater than 500 µM; on hDcn2^P, greater than 400 µM; on hDcn4^P, greater than 40 µM; on hDcn5^P, greater than 30 µM.

For “hDcn1^P: residues 62 to 259 of hDcn1 (SCCRO, DCUN1D1), the potentiating neddylation domain”, the “Kd of human proteins relative to yeast counterparts (fold worse)” value on hCul1^ctd-hRbx1 [1] is “approximately 30 fold”.

B1: CAND1: protein inhibitor of Cul1 neddylation, expressed in E. coli (protein, UniProt Q86VP6 2-1230, looked up)
Cullin-associated …: ASASYHISNLLEKMTSSDKDFRFMATNDLMTELQKDSIKLDDDSERKVVKMILKLLEDKNGEVQNLAVKCLGPLVSKVKEYQVETIVDTLCTNMLSDKEQLRDISSIGLKTVIGELPPASSGSALAANVCKKITGRLTSAIAKQEDVSVQLEALDIMADMLSRQGGLLVNFHPSILTCLLPQLTSPRLAVRKRTIIALGHLVMSCGNIVFVDLIEHLLSELSKNDSMSTTRTYIQCIAAISRQAGHRIGEYLEKIIPLVVKFCNVDDDELREYCIQAFESFVRRCPKEVYPHVSTIINICLKYLTYDPNYNYDDEDEDENAMDADGGDDDDQGSDDEYSDDDDMSWKVRRAAAKCLDAVVSTRHEMLPEFYKTVSPALISRFKEREENVKADVFHAYLSLLKQTRPVQSWLCDPDAMEQGETPLTMLQSQVPNIVKALHKQMKEKSVKTRQCCFNMLTELVNVLPGALTQHIPVLVPGIIFSLNDKSSSSNLKIDALSCLYVILCNHSPQVFHPHVQALVPPVVACVGDPFYKITSEALLVTQQLVKVIRPLDQPSSFDATPYIKDLFTCTIKRLKAADIDQEVKERAISCMGQIICNLGDNLGSDLPNTLQIFLERLKNEITRLTTVKALTLIAGSPLKIDLRPVLGEGVPILASFLRKNQRALKLGTLSALDILIKNYSDSLTAAMIDAVLDELPPLISESDMHVSQMAISFLTTLAKVYPSSLSKISGSILNELIGLVRSPLLQGGALSAMLDFFQALVVTGTNNLGYMDLLRMLTGPVYSQSTALTHKQSYYSIAKCVAALTRACPKEGPAVVGQFIQDVKNSRSTDSIRLLALLSLGEVGHHIDLSGQLELKSVILEAFSSPSEEVKSAASYALGSISVGNLPEYLPFVLQEITSQPKRQYLLLHSLKEIISSASVVGLKPYVENIWALLLKHCECAEEGTRNVVAECLGKLTLIDPETLLPRLKGYLISGSSYARSSVVTAVKFTISDHPQPIDPLLKNCIGDFLKTLEDPDLNVRRVALVTFNSAAHNKPSLIRDLLDTVLPHLYNETKVRKELIREVEMGPFKHTVDDGLDIRKAAFECMYTLLDSCLDRLDIFEFLNHVEDGLKDHYDIKMLTFLMLVRLSTLCPSAVLQRLDRLVEPLRATCTTKVKANSVKQEFEKQDELKRSAMRAVAALLTIPEAEKSPLMSEFQSQISSNPELAAIFESIQKDSSSTNLESMDTS
B1: in the test with hCul1^ctd-hRbx1 [2], the “Cul1 neddylation in the presence of Dcn1^P and Ubc12 N-terminal acetylation” value is listed as “blocked”.

B2: yDcn1^P: PONY domain of S. cerevisiae Dcn1 (protein)
chain: VYPKELTQVFEHYINNNLFDIDSLVKFIEELGYNLEDLATLCLAHLLGYKKLEEPLKREDFLSTWFMQGCSTISDMQECIKTLDVKLHEDLQYFTQIYNYAFNLILDPNRKDIDTDEGIQYWKLFFQPEYPVRMEPDLLEAWFRFLRDEGKTTISKDTWRMLLLFFKRYPTIQKIISDYDETAAWPFIIDEFYECLQDQQ
Regarding B2, the Kd at yCul1^C+-yRbx1 is 0.028 µM.
